Test results taken from patent US5478946A, “Guanidino compounds as regulators of nitric oxide synthase” (Abbott Laboratories, priority 1993, dated 1995).

How the values were obtained:
[1] = molecular target: T1, Type II NOS (RAW macrophage cell cytosol) (Mus musculus, UniProt P29477); assay: [3H]-Arginine to [3H]-Citrulline conversion, RAW cell cytosol (Type II NOS); format: biochemical, murine; settings: for inhibition at 100 µM / IC50: LPS induced; for IC50: read-out: Inhibition of [3H]-Citrulline Formation IC50, RAW Cell cytosol
T1 construct: cytosolic preparations from RAW 264.7 cells; endogenous in cells; host or cells: RAW 264.7 cells, LPS-induced for 16 hours
Description: (§1) The enzyme NO synthase produces EDRF/NO and citrulline from L-arginine (Bredt and Snyder, Proc. Nat'l. Acad. Sci. USA, 1989, 87: 682-5). The enzymatic generation of EDRF/NO is monitored by measuring the conversion of [^3 H]-L-arginine to [^3 H]-L-citrulline. An inhibitor of this specific enzymatic reaction lowers the conversion rate and, thus, the amount of [^3 H]-L-citrulline produced. Likewise, a compound acting as a substrate would compete with L-arginine and thereby lower the conversion rate.
(§2) The conversion of L-arginine to L-citrulline was assayed as reported previously (Bredt and Snyder, Proc. Nat'l Acad Sci USA, 1989, 87: 682-5) with minor modifications. Briefly, samples of partially purified NO synthase, 50-100 μg of protein or 20 μL of cytosol (alternatively cytosolic preparations from RAW 264.7 cells, a murine monocyte-macrophage cell line, induced for 16 hours with 10 μg/mL medium of Lipopolysaccharide (LPS), or partially purified (phosphocellulose column) type I isozyme from rat brain cerebellum, or partially purified isozyme III from bovine aortic endothelial cells (BAE cells)) were incubated for 20 minutes (3 minutes in the cases of purified enzyme preparations) at 25° C. in the presence of 10 μM L-[2,3-^3 H]arginine (55 Ci /mmol) (containing 34 nM (0.2 μCi)), 1 mM NADPH, and 2 Mm CaCl2 in a final volume of 100 μL. The reaction was stopped by adding 1 mL of stop buffer (2 mM EGTA, 2 mM EDTA 20 mM Hepes, pH 5.5). The total volume was then applied to a 1 mL Dowex AG 50 WX-8 column (Na^+ form, Bio-Rad) that had been pre-equilibrated with the stop buffer. L-[2,3-^3 H]Citrulline was eluted (2×) with 0.5 mL of stop buffer and radioactivity was determined by liquid scintillation counting.
(§3) The following Tables present data on the inhibition of [^3 H]-citrulline formation from [^3 H]-L-arginine by the compounds of the invention in various preparations representative of the isoforms of NOS, Types I, II, and III NOS as represented by rat brain cytosol, […] macrophage cell cytosol, and BAE homogenate preparation respectively.

[2] = molecular target: T2, Type I NOS (rat brain cytosol) (Rattus norvegicus, UniProt P29476); assay: [3H]-Arginine to [3H]-Citrulline conversion, rat brain cytosol (Type I NOS); format: biochemical; settings: for IC50: read-out: Inhibition of [3H]-Citrulline Formation IC50, Rat Brain Cytosol
T2 construct: type I isozyme from rat brain cerebellum; from tissue; host or cells: rat brain (cytosol; cerebellum, phosphocellulose-purified)
Description: as §1, §2, §3

[3] = molecular target: T3, Type III NOS (BAE homogenate preparation) (Bos taurus, UniProt P29473); assay: [3H]-Arginine to [3H]-Citrulline conversion, BAE homogenate preparation (Type III NOS); format: biochemical, bovine; settings: for IC50: read-out: Inhibition of [3H]-Citrulline Formation IC50, BAE Preparation
T3 construct: partially purified isozyme III from bovine aortic endothelial cells (BAE cells); endogenous in cells; host or cells: bovine aortic endothelial (BAE) cells
Description: as §1, §2, §3

[4] = read-out: Percent Inhibition of [3H]-Citrulline Formation, RAW Cell Cytosol
[5] = read-out: Percent Inhibition of [3H]-Citrulline Formation, Rat Brain Cytosol
[6] = read-out: Percent Inhibition of [3H]-Citrulline Formation, BAE Preparation

Structure (SMILES) | inhibition at 100 µM [1, 4] | IC50 [1] | inhibition at 100 µM [2, 5] | IC50 [2] | inhibition at 100 µM [3, 6] | IC50 [3] | inhibition at 30 µM ([3]; tested at 30 μM, read-out: Percent Inhibition of [3H]-Citrulline Formation, BAE Preparation) | inhibition at 10 µM ([1]; tested at 10 μM, read-out: Percent Inhibition of [3H]-Citrulline Formation, RAW Cell Cytosol) | inhibition at 30 µM ([2]; tested at 30 μM, read-out: Percent Inhibition of [3H]-Citrulline Formation, Rat Brain Cytosol)
CNC(=N)NC/C=C/[C@@H](CO)NC(=O)OC(C)(C)C [Example 17, N^4, Boc-N^G -Methylguanidinyl-4(S)-Amino-pent-2,E-ene-5-ol] | 6% | > 100 µM | 18% | > 100 µM |  |  |  |  | 
CNC(=N)NC/C=C/[C@H]1COC(C)(C)N1C(=O)OC(C)(C)C [Example 9, 3-(1,1-Dimethylethyl)-(S)-4-(3-N^G -methylguanidinoorooen-1,E-yl)-2.2-dimethyl-3-oxazolidinecarboxylate] | 47% | 100 µM | 51% | 80 µM |  |  |  |  | 
C/C(=C\[C@H](N)CO)CNC(=N)N[N+](=O)[O-] [Example 15, N^G -Nitroguanidinyl-4(S)-Amino-2-methyl-pent-2,E-ene-5-ol] | 66% | 40 µM | 90% | 10 µM | 50% | 100 µM |  |  | 
C/C(=C\[C@H]1COC(C)(C)N1C(=O)OC(C)(C)C)CNC(=N)N [Example 20, 3-(1,1-Dimethylethyl)-(S)-4-(3-guanidino-2-methyl-propen-1,E-yl)-2,2-dimethyl-3-oxazolidinecarboxylate] | 45% | 100 µM | 27% | > 100 µM |  |  |  |  | 
CNC(=N)NC/C=C/[C@H](N)CO [Example 10, N^G -Methylguanidinyl-4(S)-Amino-pent-2 ,E-ene-5-ol] | 43% | > 100 µM | 74% | 30 µM | 40% | > 100 µM |  |  | 
CCNC(=N)NC/C=C/[C@H](N)CO [Example 12, N^G Ethylguanidinyl-4(S)-Amino-pent-2,E-ene-5-ol] | 8% | > 100 µM | 70% | 30 µM | 5% | > 100 µM |  |  | 
CC(C)(C)OC(=O)N1[C@@H](/C=C/CNC(=N)NO)COC1(C)C [Example 7, 3-(1,1-Dimethylethyl)-(S)-4-(3-N^G -hydroxyguanidinopropen-1,E-yl)-2.2-dimethyl-3-oxazolidinecarboxylate] | 17% | > 100 µM |  |  |  |  |  |  | 
CC(C)(C)OC(=O)N1[C@H](/C=C/CNC(=N)N)COC1(C)C [Example 22, 3-(1,1-Dimethylethyl)-(R)-4-(3-guanidinopropen-1.E-yl)-2,2-dimethyl-3-oxazolidinecarboxylate] | 97% | < 100 µM | 70% | 40 µM | 50% | 100 µM |  |  | 
CC(C)(C)OC(=O)N1[C@@H](/C=C/CNC(=N)N)COC1(C)C [Example 3, 3-(1,1-Dimethylethyl)-(S)-4-(3-guanidinopropen-1,E-yl)-2,2-dimethyl-3-oxazolidinecarboxylate] | 68% | 40 µM | 35% | > 100 µM |  | > 100 µM |  |  | 
CNC(=N)NC/C=C/[C@@H](N)CO [Example 19, N-^G -Methylguanidinyl-4(R)-Amino-pent-2,E-ene,5-ol] | 27% | > 100 µM | 77% | 35 µM | 0% | > 100 µM |  |  | 
N=C(NC/C=C/[C@H](N)CO)N[N+](=O)[O-] [Example 2, N^G -Nitroguanidinyl-4(S)-amino-pent-2,E-ene-5-ol] | 14% | > 100 µM | 80% | 40 µM |  | 80 µM |  |  | 
C/C(=C\[C@H]1COC(C)(C)N1C(=O)OC(C)(C)C)CNC(=N)N[N+](=O)[O-] [Example 14, 3-(1,1-Dimethylethyl)-(S)-4-(3-nitroguanidino-2-methyl-propen-1,E-yl)-2,2-dimethyl-3-oxazolidinecarboxylate] | 0% | > 100 µM | 0% | > 100 µM |  | > 100 µM |  |  | 
CC(C)(C)OC(=O)N1[C@@H](/C=C/CNC(=N)N[N+](=O)[O-])COC1(C)C [Example 1, 3-(1,1 -Dimethylethyl)-(S)-4-(3-N^G -nitroguanidinopropen-1, E-yl)-2,2-dimethyl-3-oxazolidinecarboxvlate] | 0% | > 100 µM | 6% | > 100 µM |  | > 100 µM |  |  | 
C/C(=C\[C@H](N)CO)CNC(=N)N [Example 21, N^G -Guanidinyl-4(S)-Amino-2-methyl-pent-2,E-ene-5-ol] | 94% | 30 µM | 86% | 20 µM | 50% | 100 µM |  |  | 
N=C(NN)NC/C=C/[C@H](N)CO [Example 6, N^G -Aminoguanidinyl-4(S)-amino-pent-2,E-ene-5-ol] |  | 22 µM |  | > 30 µM |  | > 30 µM | 0% | 46% | 0%
N=C(N)NC/C=C/[C@H](N)CO [Example 4, 1-Guanidirlyl-4(S)-amino-pent-2,E-ene-5-ol] | 50% | 100 µM |  |  | 22% | > 100 µM |  |  | 
CNC(=N)NC/C=C/[C@@H]1COC(C)(C)N1C(=O)OC(C)(C)C [Example 18, 3-(1,1-Dimethylethyl)-(R)-4-(3-N^G -methylguanidinopropen-1,E-yl)-2,2-dimethyl-3-oxazolidinecarboxylate] | 9% | > 100 µM | 17% | > 100 µM |  |  |  |  | 
CCNC(=N)NC/C=C/[C@H]1COC(C)(C)N1C(=O)OC(C)(C)C [Example 11, 3-(1,1-Dimethylethyl)-(S)-4-(3-N^G -ethylguanidinopropen-1,E-yl)-2,2-dimethyl-3-oxazolidinecarboxylate] | 41% | > 100 µM | 20% | > 100 µM |  |  |  |  | 
N=C(NO)NC/C=C/[C@H](N)CO [Example 8, N^G -Hydroxyguanidinyl-4(S)-amino-pent-2,E-ene-5-ol] | 13% | > 100 µM | 23% | > 100 µM |  |  |  |  | 
CNC(=N)NC/C(C)=C/[C@H](N)CO [Example 27, N^G -Methylguanidinyl-4(S)-Amino-2-methyl-pent-2,E-ene-5-ol] | 97% | 20 µM | 86% | 20 µM | 46% | > 100 µM |  |  | 
CC(C)(C)OC(=O)N1[C@@H](/C=C(/CNC(=N)N)Cc2ccccc2)COC1(C)C [Example 24, 3-(1,1-Dimethylethyl)-(S)-4-(3,guanidino-2-benzyl-propen-1,E,yl)-2,2-dimethyl--oxazolidinecarboxylate] | 20% | > 100 µM | 35% | > 100 µM |  |  |  |  | 
N=C(N)NC/C(=C/[C@H](N)CO)Cc1ccccc1 [Example 25, N^G -Guanidinyl-4(S)-Amino-2-benzyl-pent-2,E-ene-5-ol] | 20% | > 100 µM | 80% | 40 µM | 14% | > 100 µM |  |  | 
